Results taken from BindingDB's records for patent WO2025045746 (695 Avenue de la Résistance, 2025).
pIC50: −log10 of the molar value.

Biological target: T1, NAD(+) hydrolase SARM1 [28-724] (UniProt Q6SZW1)
T1 construct: 28-724
T1 sequence (Q6SZW1 whole entry): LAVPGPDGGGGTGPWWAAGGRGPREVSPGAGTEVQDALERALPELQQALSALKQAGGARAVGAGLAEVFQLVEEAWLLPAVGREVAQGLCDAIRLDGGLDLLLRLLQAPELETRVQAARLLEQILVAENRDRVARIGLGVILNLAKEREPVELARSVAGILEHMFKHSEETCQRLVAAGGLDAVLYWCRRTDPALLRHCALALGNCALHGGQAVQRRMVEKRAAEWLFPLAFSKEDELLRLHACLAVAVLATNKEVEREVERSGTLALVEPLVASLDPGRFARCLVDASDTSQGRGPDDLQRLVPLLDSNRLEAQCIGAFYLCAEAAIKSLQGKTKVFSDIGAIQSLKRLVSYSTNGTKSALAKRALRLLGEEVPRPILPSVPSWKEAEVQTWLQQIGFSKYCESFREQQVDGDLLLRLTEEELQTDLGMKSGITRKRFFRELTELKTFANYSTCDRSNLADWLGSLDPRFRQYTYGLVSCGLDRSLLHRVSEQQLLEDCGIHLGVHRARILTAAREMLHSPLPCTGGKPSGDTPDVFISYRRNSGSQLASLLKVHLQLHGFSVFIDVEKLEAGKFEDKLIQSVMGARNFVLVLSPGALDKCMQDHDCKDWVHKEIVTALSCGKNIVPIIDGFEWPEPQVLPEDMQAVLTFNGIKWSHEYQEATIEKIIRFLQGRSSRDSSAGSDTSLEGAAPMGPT
Experiment: SARM1 Inhibitory Activity
Experimental: Assay reagents were prepared in 25mM HEPES pH 7.2, 50mM NaCl, 1mM EDTA and 0.0025% Tween20. […] The peak area of NAD and linear ADPR were measured by a RapidFire High Throughput Mass Spectrometry System (Agilent Technologies, Santa Clara, CA) using an API5000 triple quadrupole mass spectrometer (AB Sciex Framingham, MA). The ratio of linear ADPR to NAD peak area was then plotted against compound concentration to obtain an IC50 as fitted via non-linear regression.

Row | SMILES | pIC50
1 | C[C@@H]1CN(C(=O)c2cc(-c3ccnnc3)n[nH]2)C[C@H]1c1ccc(Cl)cc1 [WO2025045746, Example 65] | 7.29
2 | O=C(c1[nH]nc(-c2ccnnc2)c1C1CC1)N1CCC(c2ccc(Cl)cc2)C1 (stereo unspecified) [WO2025045746, Example 66] | 5.52
3 | C[C@H](O)[C@@H]1CN(C(=O)c2cc(-c3ccnnc3)n[nH]2)C[C@H]1c1ccc(Cl)cc1 [WO2025045746, Example 67] | 6.66
4 | C[C@@H](O)[C@@H]1CN(C(=O)c2cc(-c3ccnnc3)n[nH]2)C[C@H]1c1ccc(Cl)cc1 [WO2025045746, Example 68] | 6.71
5 | O=C(c1cc(-c2ccnnc2)n[nH]1)N1CC[C@@H](c2cc(Cl)cs2)C1 [WO2025045746, Example 69] | 6.13
6 | O=C(c1cc(-c2ccnnc2)n[nH]1)N1CC[C@H](c2cc(Cl)cs2)C1 [WO2025045746, Example 70] | 6.67
7 | N#C[C@@H]1CN(C(=O)c2cc(-c3ccnnc3)n[nH]2)C[C@H]1c1ccc(Cl)cc1 [WO2025045746, Example 72] | 6.25
8 | N#C[C@H]1CN(C(=O)c2cc(-c3ccnnc3)n[nH]2)C[C@@H]1c1ccc(Cl)cc1 [WO2025045746, Example 73] | 7.52
9 | O=C(c1cc(-c2ccnnc2)n[nH]1)N1C[C@@H](F)[C@H](c2ccc(Cl)cc2)C1 [WO2025045746, Example 75] | 6.30
10 | O=C(c1cc(-c2ccnnc2)n[nH]1)N1C[C@H](c2ccc(Cl)cc2)[C@@H](F)C1 [WO2025045746, Example 76] | 5.35
11 | COc1cnccc1-c1cc(C(=O)N2CCC(c3ccc(Cl)cc3)C2)[nH]n1 (stereo unspecified) [WO2025045746, Example 79] | 5.52
